Data from ChEMBL document CHEMBL2021775, “Discovery of flavonoid derivatives as anti-HCV agents via pharmacophore search combining molecular docking strategy” (Eur J Med Chem, 2012).
Calls of active or inactive are those of the source. No cut-off for these calls is given here.

How the values were obtained:
[1] = Cytotoxicity against human Huh7.5.1 cells by MTT assay; assay type: cell-based, Huh-7
[2] = test system: Hepatitis C virus; assay: Antiviral activity against HCV JFH-1 J399EM infected in Human Huh7.5.1 cells assessed as suppression of viral replication after 72 hrs by EGFP assay; assay type: functional, organism-based, Hepacivirus hominis; conditions: Huh-7, 72 h
[3] = test system: Hepatitis C virus; assay: Antiviral activity against HCV JFH-1 J399EM infected in Human Huh7.5.1 cells assessed as suppression of viral replication at 50 uM after 72 hrs by EGFP assay; assay type: functional; conditions: for inhibition: Hepacivirus hominis, Huh-7; for inhibition at 50 µM: Huh-7, 72 h
[4] = test system: Hepatitis C virus; assay: Inhibition of HCV 1b NS5B polymerase at 100 uM; set-up: species or system Hepatitis C virus subtype 1b
[5] = test system: Hepatitis C virus; assay: Antiviral activity against HCV genotype 2a […] in Human Huh7.5.1 replicon cells assessed as suppression of viral replication after 72 hrs by luciferase reporter gene assay; assay type: functional, organism-based, Hepacivirus hominis; conditions: Huh-7, 72 h
[6] = test system: Hepatitis C virus; assay: Inhibition of HCV 1b NS5B polymerase; set-up: species or system Hepatitis C virus subtype 1b

SMILES	CC50 [1] [µM]	EC50 [2] [µM]	inhibition at 50 µM [3] [%]	other results
O=c1c(O)c(-c2cc(O)c(O)c(O)c2)oc2cc(O)cc(O)c12 [MYRICETIN]	> 50	46.9	–	–
O=C(/C=C/c1ccc(O)cc1)c1ccc(O)cc1O [ISOLIQUIRITIGENIN]	> 50	36.1	–	–
O=c1cc(-c2cc(O)c(O)c(O)c2)oc2cc(O)ccc12	> 50	38.5	–	–
O=c1cc(-c2ccc(O)c(O)c2)oc2cc(O)c([C@@H]3O[C@H](CO)[C@@H](O)[C@H](O)[C@H]3O)c(O)c12 [ISOORIENTIN]	> 50	–	–	inhibition [3]: inactive
O=c1cc(-c2cc(O)c(O)c(O)c2)oc2cc(O)cc(O)c12 [TRICETIN]	> 50	32.2	–	–
O=c1c(O)c(-c2cc(O)c(O)cc2O)oc2ccc(O)cc12	> 50	–	31.1	–
O=c1c(O)c(-c2ccc(O)c(O)c2)oc2cc(O)ccc12 [FISETIN]	> 50	–	26.4	–
COc1ccc(-c2oc3cc(O)cc(O)c3c(=O)c2O)cc1 [KAEMPFERIDE]	> 50	–	27.6	–
COc1c(O)cc2oc(-c3ccc(O)cc3)cc(=O)c2c1O [HISPIDULIN]	> 50	36.3	–	–
O=c1cc(-c2ccc(O)c(O)c2)oc2c(O)c(O)ccc12	> 50	23.3	–	–
O=c1c(O)c(-c2ccc(O)cc2)oc2cc(O)cc(O)c12 [KAEMPFEROL]	> 50	–	51.9	–
O=c1c(O)c(-c2ccccc2)oc2cccc(O)c12	> 50	–	83.7	–
O=c1c(O[C@H]2O[C@@H](CO)[C@@H](O)[C@@H](O)[C@@H]2O)c(-c2ccc(O)c(O)c2)oc2cc(O)cc(O)c12	> 50	–	–	inhibition [3]: inactive
O=c1c(O)c(-c2ccc(O)c(O)c2)oc2c(O)c(O)cc(O)c12 [GOSSYPETIN]	> 50	47	–	–
O=c1c(O)c(-c2ccc(O)cc2)oc2cccc(O)c12	> 50	12.7	–	–
O=c1c(O)c(-c2ccc(O)cc2O)oc2cc(O)cc(O)c12 [MORIN]	> 50	–	31.1	–

SMILES	CC50 [1] [µM]	EC50 [2] [µM]	inhibition at 50 µM [3] [%]	other results
O=c1cc(-c2ccccc2)oc2cc(O)c(O)c(O)c12 [BAICALEIN]	> 50	33.9	–	–
O=c1c(O)c(-c2ccccc2)oc2cc(O)cc(O)c12 [GALANGIN]	> 50	–	46.9	–
COc1cc(-c2oc3cc(O)cc(O)c3c(=O)c2O)cc(OC)c1O [SYRINGETIN]	> 50	15.5	–	–
O=c1c(O)c(-c2ccc(O)c(O)c2)oc2cc(O)cc(O)c12 [QUERCETIN]	> 50	19.8	–	–
O=c1cc(-c2ccccc2)oc2cc(O)cc(O)c12 [CHRYSIN]	> 50	–	51	inhibition at 100 µM [4]: 30%
O=c1cc(-c2ccc(O)cc2)oc2cc(O)cc(O)c12 [APIGENIN]	> 50	7.9	–	EC50 [5]: 12 µM
O=c1c(-c2ccc(O)cc2)coc2cc(O)cc(O)c12 [GENISTEIN]	> 50	14.4	–	–
O=c1cc(-c2ccc(O)c(O)c2)oc2cc(O[C@@H]3O[C@H](CO)[C@@H](O)[C@H](O)[C@H]3O)cc(O)c12 [GALUTEOLIN]	> 50	–	–	inhibition [3]: inactive
O=c1cc(-c2ccc(O)c(O)c2)oc2cc(O)cc(O)c12 [LUTEOLIN]	> 50	4.7	–	IC50 [6]: 1.12 µM; EC50 [5]: 6.6 µM
O=c1cc(-c2ccccc2O)oc2c(O)c(O)ccc12	> 50	–	51.9	–
O=C1c2cccc(O)c2C(=O)c2c(O)cc(CO)cc21 [ALOE-EMODIN]	> 50	20.8	–	–
COc1c(O)cc2oc(-c3ccc(O)c(O)c3)cc(=O)c2c1O [EUPAFOLIN]	> 50	33.1	–	–
O=c1c(O)c(-c2cccc(O)c2O)oc2ccc(O)cc12	> 50	–	–	inhibition [3]: inactive
O=c1cc(-c2ccc(O)c(-c3c(O)cc(O)c4c(=O)cc(-c5ccc(O)cc5)oc34)c2)oc2cc(O)cc(O)c12 [AMENTOFLAVONE]	> 50	–	–	inhibition [3]: inactive
COc1cc(-c2oc3cc(O)cc(O)c3c(=O)c2O)ccc1O [ISORHAMNETIN]	> 50	–	47.3	–
